According to patent publication US11071730B2, “Substituted 6-azabenzimidazole compounds” (Gilead Sciences, Inc., priority 2018, dated 2021):

These compounds were tested against human HPK1 (MAP4K1) (Homo sapiens (Human), UniProt Q92918) (assay: HPK1 IC50 Assay (TR-FRET biochemical kinase assay, STK S1 peptide substrate)). Conditions: recombinant human HPK1 kinase domain 0.15 nM, 10 μM ATP, 1 μM STK S1 peptide; geometric mean.
Procedure, shortened: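 Pre-activated recombinant kinase domain (insect cells; 0.15 nM) pre-incubated with compounds for 15 min, then 10 μM ATP and 1 μM STK S1 peptide added for 3 h at 25 °C in BES pH 7.0. Phosphorylation read by HTRF (665/620 nm). IC50 from four-parameter fits normalized to staurosporine/DMSO controls, geometric mean of repeats.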

human HPK1 (MAP4K1), sequence (Q92918 17-274): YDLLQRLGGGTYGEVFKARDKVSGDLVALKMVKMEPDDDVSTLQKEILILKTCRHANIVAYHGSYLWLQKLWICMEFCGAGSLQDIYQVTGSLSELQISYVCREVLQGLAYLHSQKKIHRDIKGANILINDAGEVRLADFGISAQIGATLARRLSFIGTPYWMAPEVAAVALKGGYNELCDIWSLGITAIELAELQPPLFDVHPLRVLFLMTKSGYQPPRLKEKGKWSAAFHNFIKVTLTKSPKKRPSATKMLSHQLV

In order of falling IC50:
1. CC(=O)N1CCC2(CC1)C(=O)N([C@H]1C[C@@H](N3CCCCC3)C1)c1cc(-c3cc4ncn(C(C)C)c4c(Nc4cc(N(C)C)ncc4F)n3)ccc12 [Example 99]  1.6 nM
2. CC(=O)N1CCC2(CC1)C(=O)N([C@H]1C[C@@H](N3CC4CC4C3)C1)c1cc(-c3cc4ncn(C(C)C)c4c(Nc4ccncc4F)n3)ccc12 (some centres unmarked) [Example 180]  1.3 nM
3. CC(C)n1cnc2cc(-c3ccc4c(c3)N([C@H]3C[C@@H](N5CCCCC5)C3)C(=O)C43CCN(C(=O)C4(F)CC4)CC3)nc(Nc3ccncc3F)c21 [Example 150]  0.5 nM
4. CO[C@H]1C[C@@H](C(=O)N2CCC3(CC2)C(=O)N([C@H]2C[C@@H](N4CCCCC4)C2)c2cc(-c4cc5ncn(C(C)C)c5c(Nc5ccncc5F)n4)ccc23)C1 [Example 136, 6-(4-((3-fluoropyridin-4-yl)amino)-3-isopropyl-3H-imidazo[4,5-c]pyridin-6-yl)-1′-((1s,3 S)-3-methoxycyclobutane-1-carbonyl)-1-((1s,3 S)-3-(piperidin-1-yl)cyclobutyl)spiro[indoline-3,4′-piperidin]-2-one]  0.5 nM
5. CCC(=O)N1CCC2(CC1)C(=O)N([C@H]1C[C@@H](N3CCCCC3)C1)c1cc(-c3cc4ncn(C(C)C)c4c(Nc4ccncc4F)n3)ccc12 [Example 167, 6-(4-((3-fluoropyridin-4-yl)amino)-3-isopropyl-3H-imidazo[4,5-c]pyridin-6-yl)-1-((1s,3s)-3-(piperidin-1-yl)cyclobutyl)-1′-propionylspiro[indoline-3,4′-piperidin]-2-one]  0.4 nM
6. CC(C)n1cnc2cc(-c3ccc4c(c3)N([C@H]3C[C@@H](N5CCC(C)(C)C5)C3)C(=O)C43CCN(C(=O)C4(CO)CC4)CC3)nc(Nc3ccncc3F)c21 [Example 135]  0.4 nM
7. CC(C)n1cnc2cc(-c3ccc4c(c3)N([C@H]3C[C@@H](N5CCCCC5)C3)C(=O)C43CCN(C(=O)[C@@H]4CCC[C@@H]4O)CC3)nc(Nc3ccncc3F)c21 [Example 109]  0.3 nM
8. CC(C)n1cnc2cc(-c3ccc4c(c3)N([C@H]3C[C@@H](N5CCCCC5)C3)C(=O)C4(C)O)nc(Nc3ccnc(F)c3F)c21 (some centres unmarked) [Example 101]  0.3 nM
9. CC(=O)N1CCC2(CC1)C(=O)N([C@H]1C[C@@H](N3CC4CCC3CC4)C1)c1cc(-c3cc4ncn(C(C)C)c4c(Nc4ccncc4F)n3)ccc12 [Example 193]  0.3 nM
10. CO[C@H]1C[C@@H](C(=O)N2CCC3(CC2)C(=O)N([C@H]2C[C@@H](N4CCC(C)(C)C4)C2)c2cc(-c4cc5ncn(C(C)C)c5c(Nc5ccncc5F)n4)ccc23)C1 [Example 156]  0.2 nM
11. Cc1cc(Nc2nc(-c3ccc4c(c3)N([C@H]3C[C@@H](N5CCC(C)(C)C5)C3)C(=O)C43CCN(C(=O)C4CCO4)CC3)cc3ncn(C(C)C)c23)c(F)cn1 (some centres unmarked) [Example 133]  0.2 nM
12. CCC1(C(=O)N2CCC3(CC2)C(=O)N([C@H]2C[C@@H](N4CCCCC4)C2)c2cc(-c4cc5ncn(C(C)C)c5c(Nc5ccncc5F)n4)ccc23)COC1 [Example 138]  0.2 nM
13. CC(=O)N1CCC2(CC1)C(=O)N([C@H]1C[C@@H](N3CC4CCC(C4)C3)C1)c1cc(-c3cc4ncn(C(C)C)c4c(Nc4ccncc4F)n3)ccc12 [Example 181]  0.1 nM
14. CC(C)n1cnc2cc(-c3ccc4c(c3)N([C@H]3C[C@@H](N5CC6CCC(C6)C5)C3)C(=O)C43CCN(C(=O)C4(C)COC4)CC3)nc(Nc3ccncc3F)c21 [Example 123]  0.1 nM
15. CC(=O)N1CCC2(CC1)C(=O)N([C@H]1C[C@@H](N3CC4CCC(C4)C3)C1)c1cc(-c3cc4ncn(C(C)C)c4c(Nc4cc(C)ncc4F)n3)ccc12 [Example 166]  0.1 nM

Same assay, conditions: recombinant human HPK1 kinase domain 0.15 nM, 10 μM ATP, 1 μM STK S1 peptide; geometric mean of multiple experiments

In order of rising IC50:
1. CC(C)n1cnc2cc(-c3ccc4c(c3)N([C@H]3C[C@@H](N5CCCCC5)C3)C(=O)C43CCN(C(=O)C45CC(F)(C4)C5)CC3)nc(Nc3ccncc3F)c21 [Example 28]  0.1 nM
2. CC(=O)N1CCC2(CC1)C(=O)N([C@H]1C[C@@H](N3CCCCC3)C1)c1cc(-c3cc4ncn(C(C)C)c4c(Nc4ccc(F)nc4F)n3)ccc12 [Example 70]  0.1 nM
3. CC(C)n1cnc2cc(-c3ccc4c(c3)N([C@H]3C[C@@H](N5CCC(C)(C)C5)C3)C(=O)C43CCN(C4COC4)CC3)nc(Nc3ccnc(F)c3F)c21 [Example 93]  0.2 nM
4. CC(C)n1cnc2cc(-c3ccc4c(c3)N([C@H]3C[C@@H](N5CC6CC(C6)C5)C3)C(=O)C43CCN(C(=O)C4(C)COC4)CC3)nc(Nc3ccncc3F)c21 [Example 7]  0.2 nM
5. COc1cc(F)c(Nc2nc(-c3ccc4c(c3)N([C@H]3C[C@@H](N5CCCCC5)C3)C(=O)C43CCN(C(C)=O)CC3)cc3ncn(C(C)C)c23)cn1 [Example 97]  0.2 nM
6. CC(C)n1cnc2cc(-c3ccc4c(c3)N([C@H]3C[C@@H](N5CCC(C)(C)C5)C3)C(=O)C43CCN(C(=O)C4CCOCC4)CC3)nc(Nc3ccncc3F)c21 [Example 23]  0.2 nM
7. CC(C)n1cnc2cc(-c3ccc4c(c3)N([C@H]3C[C@@H](N5C[C@@H](C)[C@@H](C)C5)C3)C(=O)C4(C)C)nc(Nc3ccncc3F)c21 [Example 57]  0.4 nM
8. CC(C)n1cnc2cc(-c3ccc4c(c3)N([C@H]3C[C@@H](N5CCC[C@@H](F)C5)C3)C(=O)C43CCN(C4COC4)CC3)nc(Nc3ccncc3F)c21 [Example 79]  0.4 nM
9. CC(C)n1cnc2cc(-c3ccc4c(c3)N([C@H]3C[C@@H](N5CC(F)C6(CC6)C5)C3)C(=O)C43CCN(C4COC4)CC3)nc(Nc3ccncc3F)c21 (some centres unmarked) [Example 49]  0.5 nM
10. CC(C)n1cnc2cc(-c3ccc4c(c3)N([C@H]3C[C@@H](N5CCCCC5)C3)C(=O)C43CCN(C(=O)C(C)(C)O)CC3)nc(Nc3ccncc3F)c21 [Example 3]  0.6 nM
11. CC(C)n1cnc2cc(-c3ccc4c(c3)N([C@H]3C[C@@H](N5CCC(C)(C)C5)C3)C(=O)C43CCN(C(=O)C4CCO4)CC3)nc(Nc3ccncc3F)c21 (mixture of isomers) [Example 78, 1-((1s,3s)-3-(3,3-dimethylpyrrolidin-1-yl)cyclobutyl)-6-(4-((3-fluoropyridin-4-yl)amino)-3-isopropyl-3H-imidazo[4,5-c]pyridin-6-yl)-1′-(oxetane-2-carbonyl)spiro[indoline-3,4′-piperidin]-2-one]  0.7 nM
12. CC(C)n1cnc2cc(-c3ccc4c(c3)N([C@H]3C[C@@H](N5CCCCC5)C3)C(=O)C4(C)C)nc(Nc3c(F)cncc3F)c21 [Example 65]  0.7 nM
13. CCn1cnc2cc(-c3ccc4c(c3)N([C@H]3C[C@@H](N5CCC(C)(C)C5)C3)C(=O)C43CCN(C4COC4)CC3)nc(Nc3ccncc3F)c21 [Example 87]  0.7 nM
14. CC(C)n1cnc2cc(-c3ccc4c(c3)N([C@H]3C[C@@H](N5C[C@H]6CC[C@@H]5C6)C3)C(=O)C4(C)C)nc(Nc3ccncc3F)c21 [Example 66]  0.7 nM
15. CC(C)n1cnc2cc(-c3ccc4c(c3)N([C@H]3C[C@@H](N5CCCCC5)C3)C(=O)C4(C)O)nc(Nc3ccncc3F)c21 (some centres unmarked) [Example 55, 6-(4-((3-fluoropyridin-4-yl)amino)-3-isopropyl-3H-imidazo[4,5-c]pyridin-6-yl)-3-hydroxy-3-methyl-1-((1s,3s)-3-(piperidin-1-yl)cyclobutyl)indolin-2-one]  0.9 nM
16. Cc1cc(Nc2nc(-c3ccc4c(c3)N([C@H]3C[C@@H](N5CCCCC5)C3)C(=O)C4(C)C)cc3ncn(C(C)C)c23)c(F)cn1 [Example 54]  1.5 nM
17. CC(C)n1cnc2cc(-c3ccc4c(c3)N([C@H]3C[C@@H](NCC(C)(C)O)C3)C(=O)C4(C)C)nc(Nc3ccncc3F)c21 [Example 52, 6-(4-((3-fluoropyridin-4-yl)amino)-3-isopropyl-3H-imidazo[4,5-c]pyridin-6-yl)-1-((1s,3s)-3-((2-hydroxy-2-methylpropyl)amino)cyclobutyl)-3,3-dimethylindolin-2-one]  1.6 nM
